Data reported in patent publication US8921308B2, “Antimicrobial peptide, branched forms thereof and their use in the treatment of bacteria infections” (priority 2010, dated 2014).
Converted amounts (≈) assume the structure as drawn. Like-named read-outs stand apart in the source and are kept apart here.

Experiments:
[1] = system: C. parapsilosis ATCC 90018; conditions: ATCC 90018, 24 h
C. glabrata ATCC 90030 = conditions: ATCC 90030, 24 h
E. coli TG1 = test: In vivo antibacterial activity, lethal E. coli infection in mice; conditions: Balb-c mice, LD100 E. coli ip; single dose 10 mg/Kg ip 1 hour later
Procedure: (§1) In vivo antibacterial activity of tetra-branched D-M33 peptide. Balb-c mice (20 g) were intra-peritoneally injected with a lethal amount of E. coli TG1 cells (1×10^9 CFU). Continuous line (Ctr) indicates mice only injected ip with bacteria and no D-M33. Broken line indicates mice injected ip with bacteria and a single injection of D-M33 peptide 10 mg/Kg 1 hour later.
(§2) Tetra-branched D-M33 peptide was analysed for its antibacterial activity in mice infected with lethal amounts of the Gram-negative bacterium E. coli or the Gram-positive bacterium S. aureus.
(§3) Balb-c mice were infected with the LD100 of bacteria and treated 1 hour later with the peptide by ip administration.

S. aureus USA 300 = test: In vivo antibacterial activity, lethal S. aureus infection in mice; conditions: Balb-c mice, LD100 S. aureus ip; single dose 25 mg/Kg ip 1 hour later
Procedure: as §1, with “S. aureus USA 300” for “E. coli TG1”, “(5×10^6 CFU) mixed in a 7% mucin solution. Control” for “(1×10^9 CFU). Continuous”, “D-M33” for “Broken”, “25” for “10”, “later. P<0.05.” for “later.”
as §2, §3

[2] = system: Acinotebacter baumannii RUH 875; assay type: cell-based; conditions: 24 h
Procedure: (§4) Peptide MICs were determined against strains of several bacterial species, including Gram-negative and Gram-positive pathogens (Table 1 and 2). Activity of tetra-branched D-M33 was retained against MDR strains with various resistance mechanisms (such as extended-spectrum beta-lactamases and carbapenemases), including MDR P. aeruginosa strains from CF patients. The antimicrobial activity of tetra-branched D-M33 appeared slightly better with respect to tetra-branched L-M33 for MDR strains of Pseudomonas and one strain of Klebsiella and sensitively better respect to tetra-branched L-M33 for the two strains of Staphyloccoccus aureus reported in Table 1.

P. aeruginosa PAO-1 = assay type: cell-based; conditions: PAO-1, 24 h
Procedure: as §4

[3] = system: Acinotebacter baumannii RUH 134; assay type: cell-based; conditions: 24 h
Procedure: as §4

[4] = system: Klebsiella pneumoniae ATCC 13833; assay type: cell-based; conditions: ATCC 13833, 24 h
Procedure: as §4

E. coli ATCC 25922 = assay type: cell-based; conditions: ATCC 25922, 24 h
Procedure: as §4

[5] = system: P. aeruginosa VenM rugosa 05/04/2005; assay type: cell-based; conditions: VenM rugosa 05/04/2005, 24 h
Procedure: as §4

human erythrocytes = test: Haemolysis of human erythrocytes (method of Parpart); assay type: cell-based; conditions: for haemolytic activity (percentage of haemolysis): red cells of human
Procedure: Effect of tetra-branched L-M33, D-M33 and monomeric Indolicidin on haemolysis of human erythrocytes. The figures show the haemolytic activity of the three peptides on human erythrocytes evaluated by means of erythrocyte osmotic resistance of Parpart method in NaCl. The percentage of haemolysis is calculated by means of a calibration curve obtained by incubating erythrocytes with increasing concentrations of NaCl. […] The percentage of haemolysis of untreated blood after 19 hours (control) is very limited (<1%).
Haemolysis of fresh human erythrocytes was determined using the method of Parpart, summarized as follows. A calibration curve was constructed by suspending fresh human erythrocytes in phosphate buffer (pH 7.4, 110 mM sodium phosphate) with various concentrations of NaCl and incubated for 30 min at room temperature. Samples were centrifuged at 500×g for 5 minutes, and haemoglobin release was monitored by measuring the absorbance of supernatants at 540 nm. The absorbance obtained with 0.1% NaCl corresponded to 100% lysis and that with 1% NaCl, to 0% lysis. Peptides dissolved in PBS were added to human erythrocyte solution at several concentrations. The resulting suspension was incubated separately at 37° C. for 2 h and 24 h. Release of hemoglobin was monitored by measuring the absorbance of the suspernatant at 540 nm after centrifuging and haemolysis percentage was calculated using the calibration curve.

C. krusei ATCC 6268 = conditions: ATCC 6268, 24 h
[6] = animals treated ip, peptide dose 100 mg/Kg
C. tropicalis 6597 = conditions: 6597, 24 h
S. pneumoniae ATCC 49619 = conditions: ATCC 49619, 24 h
Procedure: (§5) Minimum Inhibitory Concentration (MIC) was determined by a standard microdilution assay as recommended by the National Committee for Clinical Laboratory Standards (NCCLS) using cation-supplemented Mueller-Hinton (MH) broth (Oxoid Ltd. Basingstoke, UK) and a bacterial inoculum of 5×10^4 CFU per well, in a final volume of 100 μl. Results were recorded by visual inspection after 24 h of incubation at 37° C.

E. faecium FI81B1 VRE = conditions: 24 h
Procedure: as §5

E. faecalis FI74B4 VSE = conditions: 24 h
Procedure: as §5

E. faecium FI81B2 VSE = conditions: 24 h
Procedure: as §5

S. agalactiae ATCC 13813 = conditions: ATCC 13813, 24 h
Procedure: as §5

S. epidermidis 4761/1 = conditions: 4761/1, 24 h
Procedure: as §5

S. pneumoniae 47D22 = conditions: 47D22, 24 h
Procedure: as §5

S. epidermidis 6154 = conditions: 6154, 24 h
Procedure: as §5

S. aureus ATCC 29213 = conditions: ATCC 29213, 24 h
Procedure: as §5

[7] = system: Staphylococcus aureus 3851; conditions: 3851, 24 h
Procedure: as §5

S. pneumoniae 47C12 = conditions: 47C12, 24 h
Procedure: as §5

E. faecalis ATCC 29212 = conditions: ATCC 29212, 24 h
Procedure: as §5

C. albicans 9833 = conditions: 9833, 24 h
[8] = system: S. epidermidis ATCC 14990; test: MIC, microdilution assay; assay type: cell-based; conditions: S. epidermidis ATCC 14990, reference strain
Procedure: as §5

S. capitis ATCC 27840 = test: MIC, microdilution assay; assay type: cell-based; conditions: S. capitis ATCC 27840, reference strain
Procedure: as §5

Aureolysin = Aureolysin (Staphylococcus aureus, UniProt P81177); assay type: in vitro ADME; conditions: incubation with S. aureus Aureolysin, 1 hour / 24 hours
Sequence of Aureolysin (P81177 209-509): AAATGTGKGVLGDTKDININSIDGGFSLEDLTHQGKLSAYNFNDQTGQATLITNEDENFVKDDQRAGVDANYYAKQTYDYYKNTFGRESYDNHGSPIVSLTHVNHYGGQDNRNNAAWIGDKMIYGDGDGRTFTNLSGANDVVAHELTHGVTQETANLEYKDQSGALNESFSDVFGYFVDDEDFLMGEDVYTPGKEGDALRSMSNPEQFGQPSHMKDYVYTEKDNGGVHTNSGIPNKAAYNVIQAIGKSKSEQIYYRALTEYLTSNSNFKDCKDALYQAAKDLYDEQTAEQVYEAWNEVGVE
Procedure: HPLC profiles of tetra-branched peptides L-M33 (A) and D-M33 (B) after incubation with the protease Aureolysin derived from S. aureus.

## CC[C@@H](C)[C@@H](NC(=O)[C@@H](CCCCN)NC(=O)[C@H](N)CCCCN)C(=O)N[C@H](CCCNC(=N)N)C(=O)N[C@@H](C(=O)N[C@H](CCCNC(=N)N)C(=O)N[C@H](CC(C)C)C(=O)N[C@H](CO)C(=O)N[C@H](C)C(=O)NCCCCC(NC(=O)[C@@H](C)NC(=O)[C@@H](CO)NC(=O)[C@@H](CC(C)C)NC(=O)[C@@H](CCCNC(=N)N)NC(=O)[C@H](NC(=O)[C@@H](CCCNC(=N)N)NC(=O)[C@H](NC(=O)[C@@H](CCCCN)NC(=O)[C@H](N)CCCCN)[C@H](C)CC)C(C)C)C(=O)NCCCCC(NC(=O)C(CCCCNC(=O)[C@@H](C)NC(=O)[C@@H](CO)NC(=O)[C@@H](CC(C)C)NC(=O)[C@@H](CCCNC(=N)N)NC(=O)[C@H](NC(=O)[C@@H](CCCNC(=N)N)NC(=O)[C@H](NC(=O)[C@@H](CCCCN)NC(=O)[C@H](N)CCCCN)[C@H](C)CC)C(C)C)NC(=O)[C@@H](C)NC(=O)[C@@H](CO)NC(=O)[C@@H](CC(C)C)NC(=O)[C@@H](CCCNC(=N)N)NC(=O)[C@H](NC(=O)[C@@H](CCCNC(=N)N)NC(=O)[C@H](NC(=O)[C@@H](CCCCN)NC(=O)[C@H](N)CCCCN)[C@H](C)CC)C(C)C)C(=O)NCCC(=O)O)C(C)C (stereo partly drawn) [D-M33, KKIRVRLSA]
[1]
  MIC: 1.5 µM (≈ 7.02 µg/mL)
C. glabrata ATCC 90030
  MIC: 12 µM (≈ 56.2 µg/mL)
E. coli TG1
  animals protected from signs of sepsis and death (seven-day survival): 100%
S. aureus USA 300
  animals protected from signs of sepsis and death (seven-day survival): 100%
[2]
  MIC: 3 µM (≈ 14 µg/mL)
P. aeruginosa PAO-1
  MIC: 0.7 µM (≈ 3.28 µg/mL)
[3]
  MIC: 3 µM (≈ 14 µg/mL)
[4]
  MIC: 0.7 µM (≈ 3.28 µg/mL)
E. coli ATCC 25922
  MIC: 1.5 µM (≈ 7.02 µg/mL)
[5]
  MIC: 0.7 µM (≈ 3.28 µg/mL)
Human erythrocytes
  haemolysis, result in words: negligible haemolysis grade
  haemolytic activity (percentage of haemolysis): < 5%
C. krusei ATCC 6268
  MIC: 6 µM (≈ 28.1 µg/mL)
[6]
  apparent toxicity signs: did not produce apparent toxicity signs
C. tropicalis 6597
  MIC: 12 µM (≈ 56.2 µg/mL)
S. pneumoniae ATCC 49619
  MIC: 6 µM (≈ 28.1 µg/mL)
E. faecium FI81B1 VRE
  MIC: 0.7 µM (≈ 3.28 µg/mL)
E. faecalis FI74B4 VSE
  MIC: 0.7 µM (≈ 3.28 µg/mL)
E. faecium FI81B2 VSE
  MIC: 0.7 µM (≈ 3.28 µg/mL)
S. agalactiae ATCC 13813
  MIC: 1.5 µM (≈ 7.02 µg/mL)
S. epidermidis 4761/1
  MIC: 0.35 µM (≈ 1.64 µg/mL)
S. pneumoniae 47D22
  MIC: 6 µM (≈ 28.1 µg/mL)
S. epidermidis 6154
  MIC: 0.35 µM (≈ 1.64 µg/mL)
S. aureus ATCC 29213
  MIC: 3 µM (≈ 14 µg/mL)
[7]
  MIC: 0.7 µM (≈ 3.28 µg/mL)
S. pneumoniae 47C12
  MIC: 12 µM (≈ 56.2 µg/mL)
E. faecalis ATCC 29212
  MIC: 0.7 µM (≈ 3.28 µg/mL)
C. albicans 9833
  MIC: 24 µM (≈ 112 µg/mL)
[8]
  MIC: 0.35 µM (≈ 1.64 µg/mL)
S. capitis ATCC 27840
  MIC: 0.35 µM (≈ 1.64 µg/mL)

## CC[C@H](C)[C@H](NC(=O)[C@H](CCCCN)NC(=O)[C@@H](N)CCCCN)C(=O)N[C@@H](CCCNC(=N)N)C(=O)N[C@H](C(=O)N[C@@H](CCCNC(=N)N)C(=O)N[C@@H](CC(C)C)C(=O)N[C@@H](CO)C(=O)N[C@@H](C)C(=O)NCCCC[C@H](NC(=O)[C@H](C)NC(=O)[C@H](CO)NC(=O)[C@H](CC(C)C)NC(=O)[C@H](CCCNC(=N)N)NC(=O)[C@@H](NC(=O)[C@H](CCCNC(=N)N)NC(=O)[C@@H](NC(=O)[C@H](CCCCN)NC(=O)[C@@H](N)CCCCN)[C@@H](C)CC)C(C)C)C(=O)NCCCC[C@H](NC(=O)[C@H](CCCCNC(=O)[C@H](C)NC(=O)[C@H](CO)NC(=O)[C@H](CC(C)C)NC(=O)[C@H](CCCNC(=N)N)NC(=O)[C@@H](NC(=O)[C@H](CCCNC(=N)N)NC(=O)[C@@H](NC(=O)[C@H](CCCCN)NC(=O)[C@@H](N)CCCCN)[C@@H](C)CC)C(C)C)NC(=O)[C@H](C)NC(=O)[C@H](CO)NC(=O)[C@H](CC(C)C)NC(=O)[C@H](CCCNC(=N)N)NC(=O)[C@@H](NC(=O)[C@H](CCCNC(=N)N)NC(=O)[C@@H](NC(=O)[C@H](CCCCN)NC(=O)[C@@H](N)CCCCN)[C@@H](C)CC)C(C)C)C(=O)NCCC(=O)O)C(C)C [L-M33, KKIRVIRLSA, reference compound]
Aureolysin
  degradation by protease Aureolysin (HPLC profile): degraded after only 1 hour of incubation
[2]
  MIC: 1.5 µM (≈ 7.02 µg/mL)
P. aeruginosa PAO-1
  MIC: 1.5 µM (≈ 7.02 µg/mL)
[3]
  MIC: 1.5 µM (≈ 7.02 µg/mL)
[4]
  MIC: 1.5 µM (≈ 7.02 µg/mL)
E. coli ATCC 25922
  MIC: 1.5 µM (≈ 7.02 µg/mL)
[5]
  MIC: 3 µM (≈ 14 µg/mL)
Human erythrocytes
  haemolytic activity (percentage of haemolysis): < 5%
[7]
  MIC: 6 µM (≈ 28.1 µg/mL)

## Indolicidin [reference compound]
Human erythrocytes; human erythrocytes (FIG. 2)
  haemolysis, result in words: more haemolytic
